Source: patent publication US20090054368A1, “Substituted gemini surfactant compounds” (University of Saskatchewan, priority 2007, published 2009)
Entries after “also recorded” stand apart in the source; their conditions may differ.

Tests used:
cultured cells = assay: Viability of cells following transfection; type: cell-based; details: for cell viability / toxicity (in words): after transfection with plasmid DNA-gemini surfactant-DOPE
Experimental: Ideal transfection reagents are minimally toxic and/or disruptive to cells. Accordingly, the N-substituted surfactants were tested for toxicity in cultured cells. The viability of cells following transfection with either plasmid DNA-gemini surfactant-DOPE or Lipofectamine Plus are shown in FIG. 3. The aza-substituted surfactants 12-5N-12, 12-8N-12, and 12-7N-12 had similar toxicity compared to the Lipofectamine Plus reagent, with cell viability around 80% of the controls (i.e., no treatment or plasmid DNA alone; p>0.05).

[1] = previous work [11]; cited from earlier work
[2] = Small angle X-ray scattering (SAXS) of plasmid DNA-gemini surfactant-DOPE complexes; type: physicochemical; details: plasmid DNA-gemini surfactant-DOPE complexes
Experimental: SAXS measurements were carried out at beamline X21 at the National Synchrotron Light Source at Brookhaven National Laboratory. Beamline X21 is based on a wiggler source, with a helium gas-cooled Si(111) monochromator selecting the photon energy. The X-ray beam is focused by a toroidal mirror into the experimental station. Three pairs of precision slits, positioned at 4 m, 1 m, and 5 cm upstream of the sample, define the beam. The scattering pattern is recorded using a 13 cm Mar CCD detector (Mar USA, Evanston, Ill.) located 1.26 m (calibrated with the scattering pattern of silver behenate) downstream of the sample. The measurements were performed with 12 KeV x-rays and the data covered a q-range from 0.008 Å^−1 to 0.375 Å^−1. All beam paths are under vacuum, except at the sample position, where the sample is in air, and kapton windows terminate the vacuum beam paths. Samples were loaded into 1.5 mm capillaries (Charles Supper #15-BG, Natick Mass.) and data recorded at room temperature. All spectra were processed to remove background contributions by subtracting the scattering profile obtained for a water-filled capillary. Peak fitting was carried out using the open-sources software package “fityk” (available at http://www.unipress.waw.pl/fityk/; last accessed on Jul. 5, 2007) using multiple Gaussian functions.
Solutions for SAXS analysis were prepared by addition of appropriate amounts of stock surfactant, DNA, and DOPE solutions, followed by sonication (to ensure complete mixing) where appropriate. The pGTmCMV.IFN-GFP plasmid DNA was used in the SAXS studies. The final concentrations of DNA and DOPE were 0.075 mM (50 μg/mL) and 1.00 mM (0.75 mg/mL), respectively. The concentration of gemini surfactant was adjusted as needed to obtain the desired 1:10 DNA:surfactant charge ratio. Preliminary x-ray scattering studies indicated these concentrations to be too dilute to give good scattering signals; as a result, the samples were concentrated 5× by evaporation.

[3] = tested on: COS-7 African Green monkey kidney fibroblast cells; assay: Transfection assay (luciferase production after transfection with plasmid DNA-gemini surfactant complexes); type: cell-based; details: PG complexes, complexed with DNA in the absence of helper lipid (DOPE)
[4] = Size (hydrodynamic radius) and zeta potential as a function of pH; type: physicochemical; details: PGL complexes
Experimental: Determinations of size (hydrodynamic radius, RH) and zeta potential (ζ) as a function of pH were carried out using a Malvern Instruments (Worcestershire, UK) ZetaSizer NanoZs with MPT-2 auto-titrator attachment. 10 mL of the desired sample was placed in the titration cell of the auto-titrator and samples were titrated (in 0.2-0.5 pH unit increments) with 0.1 M NaOH and 0.1 M HCl over the desired pH range. Size and zeta potential measurement were made in triplicate at each pH point, and the reported values represent the average±standard error. pH titrations of aqueous gemini surfactant solutions were made at a surfactant concentration of 2.00 mM, above the critical micelle concentration in all cases.
(§1) Solutions for size, zeta potential, and circular dichrosicm (CD) measurements were prepared, in larger volumes, as described above for the transfection experiments using a pGTmCMV.IFN-GFP plasmid DNA, previously constructed in our lab. Solutions containing only surfactant and plasmid DNA were prepared by addition of an aliquot of stock plasmid DNA to the gemini surfactant solution to a charge ratio of 1:10 (DNA:surfactant).

[5] = tested on: COS-7 African Green monkey kidney fibroblast cells; assay: Transfection assay (luciferase production after transfection with plasmid DNA-gemini surfactant complexes); type: cell-based
Experimental: COS-7 African Green monkey kidney fibroblast cells (ATCC CRL1651) were prepared for transfection in antibiotic and 10% fetal bovine serum supplemented minimal Eagle's medium (MEM). The day before transfection, 5×10^4 cells/well were seeded in 24-well plates (Greiner Labortechnik GmbH, Germany). The supplemented MEM was changed to MEM one hour prior to transfection.
The pMASIA.Luc plasmid DNA was used at a concentration of 0.2 μg/well for transfection. The transfection mixtures were prepared as follows: 0.2 μg of plasmid DNA was mixed with aliquots of gemini surfactant solution to obtain a plasmid DNA:gemini surfactant charge ratio of 1:10 and incubated at room temperature for 15 minutes. To this mixture, 25 μL of DOPE liposomes were added. The transfection mixtures were incubated for 30 minutes at room temperature prior to transfection and added to the cells, dropwise. The plates were incubated for 5 hours at 37° C. in a CO2 incubator. Dc-Chol (30-[N—(N′,N′-Dimethylaminoethane)-carbamoyl]cholesterol) was used for comparison and, as a positive control, cells were also transfected with Lipofectamine Plus™ Reagent (Invitrogen Life Technologies, Carlsbad, Calif.), according to the manufacturer's protocol, with 0.2 μg of plasmid DNA per well.
Luciferase production was quantified using the Promega Steady-Glo™ luciferase assay system. Luminescence was monitored using a Turner Biosystems (Sunnyvale, Calif., USA) Reporter microplate luminometer. Statistical analysis was performed using ANOVA and Tukey's multiple comparison test. […] Equal variances were tested using Bartlett's test, and normality by the D'Agostino & Pearson omnibus normality test.

[6] = from reference [24]; cited from earlier work
[7] = Average membrane charge density calculation for plasmid DNA-gemini surfactant-DOPE nanoparticles; type: physicochemical; details: calculated from head group areas
plasmid DNA = assay: Circular dichroism of plasmid DNA-gemini surfactant complexes; type: physicochemical; details: with or without DOPE
Experimental: CD spectra were obtained by using an Applied Photo Physics π*180 instrument (Leatherhead, UK) with a 4 nm slit, at room temperature.
as §1

| Compound | cell viability / toxicity (in words) (cultured cells) | transfection efficiency within the 12-s-12 series, s=3-8 (in words) [1] | phase / morphology of lipid bilayers from scattering pattern (in words) [2] | transfection efficiency (in words) [3] | pH of transition in particle size and zeta potential [4] | cell viability (cultured cells; after transfection with plasmid DNA-gemini surfactant-DOPE or Lipofectamine Plus, relative to controls (no treatment or plasmid DNA alone)) | increase in transfection compared to the corresponding aza-substituted compound [5] | transfection efficiency (in words) ([5]; PGL complexes, with DOPE added) | transfection efficiency ([5]; PGL system (plasmid DNA-gemini surfactant-DOPE), charge ratio 1:10) | increase in transfection compared to an un-substituted gemini surfactant ([5]; p<0.01) | Head group area a0 [6] | d-spacing of main scattering peak [2] | membrane charge density σM [7] | DNA distortion from CD spectrum (in words) (plasmid DNA) |
| --- | --- | --- | --- | --- | --- | --- | --- | --- | --- | --- | --- | --- | --- | --- |
| CCCCCCCCCCCC[N+](C)(C)CCC[N+](C)(C)CCCCCCCCCCCC.[Br-].[Br-] [12-3-12, reference compound] | not statistically different from the control | best transfection efficiency; also recorded: most efficient transfection agent | predominantly hexagonal morphology | low transfection efficiency | – | – | – | – | – | – | – | – | – | – |
| CCCCCCCCCCCC[N+](C)(C)CCCCCCCC[N+](C)(C)CCCCCCCCCCCC.[Br-].[Br-] [12-8-12] | – | lowest | – | – | – | – | – | – | – | – | – | – | – | – |
| CCCCCCCCCCCC[N+](C)(C)CCCNCCC[N+](C)(C)CCCCCCCCCCCC.[Br-].[Br-] [12-7NH-12, 1,9-bis(dodecyl)-1,1,9,9-tetramethyl-5-imino-1,9-nonanediammonium dibromide] | not statistically significantly different from that of the 12-5N-12 and 12-8N-12 | – | – | significantly higher level of transfection efficiency | 5.5 | about 70% | 3 fold | enhanced transfection efficiency compared to the un-substituted surfactant, 12-3-12; also recorded: higher levels of transfection efficiency compared to the non-substituted gemini surfactant 12-3-12; also recorded: comparable to that of Lipofectamine Plus | 6.7±0.5 ng luciferase/2×10^4 cells | 9 fold | 1.56 ± 0.04 nm^2/molecule | 59.4 Å | 0.920 ×10^−2 e/Å^2 | greatest DNA distortion |
